Source: patent US5235045A, “Non-azo naphthalimide dyes” (priority 1992, dated 1993)
Like-named read-outs stand apart in the source and are kept apart here.

How the values were obtained:
[1] = tested on: Bovine Herpes Virus Type I; experiment: Photoinactivation of Bovine Herpes Virus Type I (CPE, TCID50); format: cell-based, Bovine Herpes Virus Type I (BHV-1); conditions: light or radiation study, 10J/cm^2; for killing at 0.035 µM / killing at 0.07 µM / killing at 0.14 µM / killing at 0.27 µM / killing at 0.54 µM / killing at 1.09 µM: read-out: % Inactivation; for killing at 0.07 µM / log reduction at 0.07 µM: 0.070 μM
Procedure: Bovine Herpes Virus Type I (BHV-1). Cell-free and serum-free virus (BHV-1 reference strain from Dr. M. L. Vickers, ADL SDSU) was purified by potassium tartrate gradient ultracentrifugation. Virus was then resuspended in minimal buffer. Compound VII was diluted with ethanol to a concentration of 5 mg/ml. The dye stock solution was prepared by sequentially adding the ethanolic dye solution to fetal bovine serum (FBS), and diluting the dye-FBS mixture with MEM to give 10% FBS in MEM, so that the final concentration of the compound was 500 ng/ml. All dilutions of the dye in the medium were made from this stock solution. Dye/virus mixtures were all prepared as 1:1 mixtures of virus and dye stock solution. The virus was incubated for 30 min at 37° C. prior to irradiation, and then irradiated using a xenon arc lamp to give 10J/cm^2 total irradiative flux. Photomodified virus was then incubated with the appropriate cells (fetal bovine lung - FBL - or MDBK) in 10% FBS in MEM for 1 hour. Then unbound virus was taken off, the cells were washed with Ca/Mg-free PBS, and the cells were then placed in 10% FBS-MEM. The cells were incubated for 24 hours at 37° C. in a 5% CO2 incubator. After 24 and 48 hours, the cells were assayed for cytophathic effect (CPE), and the results expressed in terms of using TCID50 units. The viral inactivation data are expressed in terms of % inactivation in Table 12.

[2] = tested on: cytochrome c; experiment: Effect of irradiation on membrane-bound protein function: oxidation of vesicle-bound cytochrome c by CO(phen)3^3+; format: biochemical; conditions: 1×10^-7 M dye, irradiated; pH 7.5, 20° C.; without dye 25±1
Procedure: Cytochrome C, a mitochondrial protein which is peripherally associated with membranes was studied as a model for the effect of photomodification of the membrane lipids on protein function. At pH 7.5 and 20° C., the rate of oxidation of vesicle-bound cytochrome c (7×10^-6 M) by CO(phen)3^3 + was 25±1 s^-1. Upon addition of Compound VII (1×10^-7 M) to the vesicles containing reduced cytochrome c, and subsequent irradiation as described above, the rate constant for oxidation of the bound cytochrome c under the same conditions was reduced to 2±1 s^-1.

[3] = tested on: H9 cells; experiment: Effects on H9 cells of Ed6Br with prior activation by 420 nm light (Trypan Blue); format: cell-based; conditions: Homo sapiens, H9, 24 h, read-out: % Viable Cells
[4] = tested on: H9 cells; experiment: Take-up of Ed6Br by H9 cells; format: cell-based, human; conditions: for Cellular Ed6Br: 22° C.
Procedure: H9 cells (an immortal human T-cell lymphoma) were cultured in RPMI-1640 medium containing 10% additional fetal calf serum held in air with a 5% CO2 atmosphere at 37.5° C. to a cell density in the range of 10^5 -10^7 per ml. Cells were harvested by centrifugation and four 3-milliliter aliquots containing 5×10^5 H9 cells per ml suspended in RPM I-1640 medium with 10% additional fetal calf serum were prepared. […] The fourth aliquot served as a dye-free control. Immediately after addition of the dyes, 1 ml samples were harvested from each aliquot and the cells washed by dilution into 3 ml phosphate buffered saline (pH 7.3), followed by two repetitions of centrifugation, decantation of the supernatant, and resuspension of the cell pellet in the buffered saline solution, and a final centrifugation, decantation, and retention of the cell pellet at 4° C. for subsequent analysis. At the subsequent elapsed incubation times at 1, 2, 3, and 4 hrs., one milliliter samples were harvested and treated in an identical fashion. After treatment of the 4-hr. sample, the cells of each sample were lysed in 3 ml of an 0.1% solution of ctyltetraammonium bromide detergent in phosphate buffered saline (pH=7.3). The fluorescence emission at 520 nm (420 nm excitation) of each sample was determined with a SLM SPT 500C spectrofluorometer. Additionally, the emission intensity of samples of these detergent solutions having, respectively, dye concentrations of […] were prepared as standards for calibrating the concentration dependence of the fluorescence emission.

[5] = tested on: Herpes simplex virus type 1; experiment: Effect of DiEd6Br and light on HSV-1 containing 15% fetal calf serum (plaque assay); format: cell-based, MacIntyre strain
[6] = tested on: Human High Density Lipoprotein (HDL), Apoprotein I; experiment: Protein crosslinking with DiEd6Br: HDL; format: biochemical; conditions: 25.0 μM, 400 J/cm^2
[7] = tested on: F-actin polymers of G-actin; experiment: Protein crosslinking with DiEd6Br: F-actin; format: biochemical; conditions: 40.0 μM, 400 J/cm^2
[8] = 4 hr, external 25 mM (so in the source)

CCCCCCNc1c(Br)cc2c3c(cccc13)C(=O)N(CCCCCC)C2=O [Compound VII, 3-bromo-4-(hexyl)amino-N-hexyl-1,8-naphthalimide]
killing at 0.035 µM ([1]; 24 h): 99.4% | log reduction at 0.035 µM ([1]; 24 h, read-out: log10 red.): 3.2 | killing at 0.035 µM ([1]; 48 h): 89.9% | log reduction at 0.035 µM ([1]; 48 h, read-out: log10 red.): 0.95 | killing at 0.07 µM ([1]; 24 h): 99.8% | log reduction at 0.07 µM ([1]; 24 h, read-out: log10 red.): 3.7 | killing at 0.07 µM ([1]; 48 h): 98.7% | log reduction at 0.07 µM ([1]; 48 h, read-out: log10 red.): 2 | killing at 0.14 µM ([1]; 24 h): > 100% | log reduction at 0.14 µM ([1]; 24 h, read-out: log10 red.): > 3.7 | killing at 0.14 µM ([1]; 48 h): 99.4% | log reduction at 0.14 µM ([1]; 48 h, read-out: log10 red.): 3.2 | killing at 0.27 µM ([1]; 24 h): > 100% | log reduction at 0.27 µM ([1]; 24 h, read-out: log10 red.): > 3.7 | killing at 0.27 µM ([1]; 48 h): 99.4% | log reduction at 0.27 µM ([1]; 48 h, read-out: log10 red.): 3.2 | killing at 0.54 µM ([1]; 0.54 μM, 24 h): > 100% | killing at 0.54 µM ([1]; 0.54 μM, 48 h): > 100% | log reduction at 0.54 µM ([1]; 0.54 μM, 48 h, read-out: log10 red.): > 3.7 | log reduction at 1.09 µM ([1]; 24 h): > 3.7 | killing at 1.09 µM ([1]; 24 h): > 100% | log reduction at 1.09 µM ([1]; 48 h): > 3.7 | killing at 1.09 µM ([1]; 48 h): > 100% | rate constant for oxidation of bound cytochrome c [2]: 2 ± 1 s⁻¹ | viability at 100 µM ([3]; no previous light activation): 28% | viability at 100 µM ([3]; previous light activation): 0% | average dye concentration in H9 cell [4, 8]: about 1.92 millimolar | cellular over external concentration [4, 8]: approximately 77 times | increased concentration of the dye by the cell ([4]; 4 hr, external 1 and 5 mm (so in the source)): ~70 fold | Cellular Ed6Br ([4]; external 1 μM, 0 hr, 1 a° mol = 1 × 10^-18 mol): 91.2 a° mol/cell | Cellular Ed6Br ([4]; external 1 μM, 1 hr): 130.2 a° mol/cell | Cellular Ed6Br ([4]; external 1 μM, 2 hr): 189.8 a° mol/cell | Cellular Ed6Br ([4]; external 1 μM, 3 hr): 186.0 a° mol/cell | Cellular Ed6Br ([4]; external 1 μM, 4 hr): 208.3 a° mol/cell | Cellular Ed6Br ([4]; external 5 μM, 0 hr): 165.6 a° mol/cell | Cellular Ed6Br ([4]; external 5 μM, 1 hr): 385.1 a° mol/cell | Cellular Ed6Br ([4]; external 5 μM, 2 hr): 437.2 a° mol/cell | Cellular Ed6Br ([4]; external 5 μM, 3 hr): 468.8 a° mol/cell | Cellular Ed6Br ([4]; external 5 μM, 4 hr): 548.9 a° mol/cell | Cellular Ed6Br ([4]; external 25 μM, 0 hr): 316.2 a° mol/cell | Cellular Ed6Br ([4]; external 25 μM, 1 hr): 716.3 a° mol/cell | Cellular Ed6Br ([4]; external 25 μM, 2 hr): 1073.4 a° mol/cell | Cellular Ed6Br ([4]; external 25 μM, 3 hr): 1689.3 a° mol/cell | Cellular Ed6Br ([4]; external 25 μM, 4 hr): 1748.8 a° mol/cell

CCCCCCN1C(=O)c2cccc3c(NCCNC(=O)CCCCC(=O)NCCNc4c(Br)cc5c6c(cccc46)C(=O)N(CCCCCC)C5=O)c(Br)cc(c23)C1=O [Compound XLIV]
PFU/ml ([5]; 1.25 μM, 15% fetal calf serum, 20 J/cm2, 420 nm): 0 PFU/ml | PFU/ml ([5]; 2.5 μM, 15% fetal calf serum, 20 J/cm2, 420 nm): 0 PFU/ml | PFU/ml ([5]; 5 μM, 15% fetal calf serum, 20 J/cm2, 420 nm): 0 PFU/ml | PFU/ml ([5]; 10 μM, 15% fetal calf serum, 20 J/cm2, 420 nm): 0 PFU/ml | PFU/ml ([5]; .078 μM, 15% fetal calf serum, 20 J/cm2, 420 nm): 4.2 × 10^4 PFU/ml | PFU/ml ([5]; .156 μM, 15% fetal calf serum, 20 J/cm2, 420 nm): 4.5 × 10^3 PFU/ml | PFU/ml ([5]; .312 μM, 15% fetal calf serum, 20 J/cm2, 420 nm): 8.5 × 10^1 PFU/ml | PFU/ml ([5]; .625 μM, 15% fetal calf serum, 20 J/cm2, 420 nm): 6.0 × 10^1 PFU/ml | log reduction at 1.25 µM ([5]; Human alphaherpesvirus 1, light or radiation study, 1.25 μM, 15% fetal calf serum, 20 J/cm2, 420 nm, read-out: Log10 Reduction): ≥ 5 | log reduction at 2.5 µM ([5]; Human alphaherpesvirus 1, light or radiation study, 2.5 μM, 15% fetal calf serum, 20 J/cm2, 420 nm, read-out: Log10 Reduction): ≥ 5 | log reduction at 5 µM ([5]; Human alphaherpesvirus 1, light or radiation study, 5 μM, 15% fetal calf serum, 20 J/cm2, 420 nm, read-out: Log10 Reduction): ≥ 5 | log reduction at 10 µM ([5]; Human alphaherpesvirus 1, light or radiation study, 10 μM, 15% fetal calf serum, 20 J/cm2, 420 nm, read-out: Log10 Reduction): ≥ 5 | log reduction at 0.078 µM ([5]; Human alphaherpesvirus 1, light or radiation study, .078 μM, 15% fetal calf serum, 20 J/cm2, 420 nm, read-out: Log10 Reduction): 0.38 | log reduction at 0.156 µM ([5]; Human alphaherpesvirus 1, light or radiation study, .156 μM, 15% fetal calf serum, 20 J/cm2, 420 nm, read-out: Log10 Reduction): 1.35 | log reduction at 0.312 µM ([5]; Human alphaherpesvirus 1, light or radiation study, .312 μM, 15% fetal calf serum, 20 J/cm2, 420 nm, read-out: Log10 Reduction): 3.1 | log reduction at 0.625 µM ([5]; Human alphaherpesvirus 1, light or radiation study, .625 μM, 15% fetal calf serum, 20 J/cm2, 420 nm, read-out: Log10 Reduction): 4 | kill of HSV-1 ([5]; as low as 0.156 mM, 420 nm, 20 J/cm^2): > 99.99% | Inferred Crosslinked Species ([6]; Cremophor EL): 8 Apopro- | Inferred Crosslinked Species, Gel mw ([6]; 8 Apoprotein I units): 141 kD | heavier bands [7]: many ill separated heavier bands merging together near | Inferred Crosslinked Species ([7]; first species): 2 G-actin | Inferred Crosslinked Species ([7]; second species): 3 G-actin | Inferred Crosslinked Species, Gel mw ([7]; 2 G-actin monomers): 94 kD | Inferred Crosslinked Species, Gel mw ([7]; 3 G-actin monomers): 141 kD
